According to patent US9937240B2, “Peptide having fibrosis inhibitory activity and composition containing same” (GemVax & KAEL Co., Ltd., priority 2014, dated 2018):

Experiments:
fibronectin (FN) = assay: TGF-β inhibition in HepG2 cell lines, qRT-PCR of fibronectin mRNA; type: cell-based, human; conditions: HepG2, TGF-β1 treated; positive control
Description: (§1) To verify the TGF-β inhibitory effect of PEP1, which is considered as the main cause of fibrosis, an experiment for confirming a TGF-β signaling inhibiting action in HepG2 cell lines was performed as follows.
(§2) Reagents and materials used in the experiment are as follows. After powdery PEP1 was dissolved in 0.2 μm filtered sterile water, aliquots were stored at −70° C. and then dissolved before use. As a cell line, HepG2 (ATCC HB-8065; American Type Culture Collection) was used, and recombinant human TGF-β1 was dissolved in 4 mM HCl, thereby preparing a 10 μg/mL stock. SB431542 (Sigma) used as a positive control was prepared in a 10 mM stock.
(§3) 2×10^6 HepG2 cells (ATCC HB-8065) were seeded into a 60 mm petri-dish and cultured in a CO2 incubator for 16 hours. Afterward, media were transferred to serum-free media (SFM), and then the cells were further cultured for 24 hours. […]
(§4) RNA was extracted from peptide-treated cells using an RNEASY® Plus Mini Kit (Qiagen) (RNA extraction kit) according to the manufacture's protocol. The extracted RNA was quantified, and then cDNA was synthesized from 1 μg of total RNA using a reverse transcription system (Promega). […] As TGF-β-related biomarkers, mRNA expression of fibronectin (FN), Smad2 and Smad4 were analyzed, and as a reference gene, GAPDH was used. […]

AsPC1 cells = assay: AsPC1 cell xenograft model: fibrosis, cancer cells and mouse weight; type: in vivo, nude mice; conditions: for fibrosis (collagen parts stained in blue color in cancer tissue): administration starting 10 days after inoculation, PEP1 2 mg/kg once a day s.c.
Description: To verify in vivo anticancer effects of PEP1 and gemcitabine on pancreatic cancer, xenograft experiments were performed using AsPC1 cell lines. A xenografting method used herein is as follows.
Reagents and materials used for the experiment are as follows. After powdery PEP1 was dissolved in 0.2 μm filtered sterile water, aliquots were stored at −70° C. and then dissolved before use, and gemcitabine was dissolved in 100% saline. 5-fluorouracil was dissolved in DMSO.
AsPC1 cell lines (Cell #6×10^5 cells/[…]), which were cell lines used in the experiment, are human pancreatic cancer metastatic cells purchased from the American Type Cell Culture (ATCC, Rockville, Md.).
AsPC1 cells were injected into each of nude mouse experiment groups (1) to (4).
The cultured 5×10^6 AsPC1 cells were subcutaneously injected into nude mice (BALB/c-nu/nu nude mice, purchased from Joongang Laboratory animal, Seoul, Korea). The injection was performed until cancer was grown to a size of 100 mm^3 (about 10 days). Following cancer engraftment, the mice were divided into groups, each group having a similar average weight, and then either or both of gemcitabine and Pep1 were subcutaneously and intraperitoneally injected into the mice according to the conditions for each of the four experiment groups below (refer to FIG. 1). Cancer volume was measured with calipers and calculated by the following formula [width^2×length×0.52].
After grafting, either or both of Pep1 and gemcitabine were administered to each of the four experiment groups.
(1) AsPC1 grafting control
(2) AsPC1 grafting+PEP1 2 mg/kg (once a day, s.c) administered group
After then, weight of each mouse was quantified every time. Also, cancer tissue sample preparation and cell proliferation marker (PCNA)/apoptosis marker (TUNEL) staining were performed.
For analyses of experiment results, averages between several experiment groups was assessed by a student's t-test.

Smad2 = assay: TGF-β inhibition in HepG2 cell lines, qRT-PCR of Smad2 mRNA; type: cell-based, human; conditions: HepG2, 10 ng/ml TGF-β1; PEP1 1, 5 and 10 μM; 48-hour culture; reference gene GAPDH
Description: as §1, §2, §3, §4

Smad4 = assay: TGF-β inhibition in HepG2 cell lines, qRT-PCR of Smad4 mRNA; type: cell-based, human; conditions: HepG2, 10 ng/ml TGF-β1; PEP1 1, 5 and 10 μM; 48-hour culture; reference gene GAPDH
Description: as §1, §2, §3, §4

[1] = system: Normal human epidermal keratinocytes (NHEKs); assay: Cell differentiation of radiation-exposed NHEK cell lines; type: cell-based; conditions: 1 mM of PEP1, 6 Gy ionizing radiation, cultured 10 days
Description: To confirm PEP1 effects on fibrosis induced by radiation exposure for anticancer treatment and other tumor treatments, an experiment for confirming a TGF-β inhibitory effect of PEP1 in radiation-exposed NHEKs was performed.
(§5) PEP1 synthesized according to Example 1 and a placebo (sham) as a control were prepared. Normal human epidermal keratinocytes (NHEKs) were cultured in a monolayer to be used for a radiation exposure experiment. For the radiation exposure experiment, ionized radiation was used at an intensity of 6 Gy.
To examine the cell differentiation of NHEK cell lines according to radiation exposure, NHEKs were treated with each of the placebo and 1 mM of PEP1, and then divided into radiation-exposed groups and non-exposed groups, followed by culturing for 10 days (refer to FIG. 13).

GRHL2 = assay: Biomarker expression in radiation-exposed NHEKs: GRHL2; type: cell-based, human; conditions: 1 mM of PEP1, 10 days after radiation exposure (6 Gy)
Description: as §5
(§6) Also, to examine the change in expression levels of biomarkers for the NHEK cell lines due to the radiation exposure, the NHEKs were treated with each of the placebo and 1 mM of PEP1 and divided into non-exposed groups (−) and radiation-exposed groups (+), and then expression levels of the biomarkers were examined at day 1 and day 10 after the radiation exposure (refer to FIG. 14). In measurement of the expression levels of the biomarkers, GAPDH was used as a reference control.
(§7) Western blotting procedures were as follows. Peptide-treated cells were washed with PBS twice, collected into a 1.5 mL centrifuge tube using a cell scraper, followed by centrifugation (1,000 rpm, 4° C., 2 minutes). After removal of the obtained supernatant, 100 μL of RIPA buffer was added to the NHEKs. […]
(§8) […] of protein was transferred to a PVDF membrane (Millipore) by 8% sodium dodecyl sulfate-polyacrylamide gel electrophoresis (SDS-PAGE). […] Afterward, ECL detection (Amersham Pharmacia Biotech) was performed, and obtained images were analyzed using an image analyzer (GE Healthcare, IMAGEQUANT™ LAS 4000).

p63 = assay: Biomarker expression in radiation-exposed NHEKs: p63; type: cell-based, human; conditions: 1 mM of PEP1, 10 days after radiation exposure (6 Gy)
Description: as §5, §6, §7, §8

N-Cad = assay: Biomarker expression in radiation-exposed NHEKs: N-Cad; type: cell-based, human; conditions: 1 mM of PEP1, after radiation exposure (6 Gy)
Description: as §5, §6, §7, §8

P-Akt = assay: Biomarker expression in radiation-exposed NHEKs: P-Akt; type: cell-based, human; conditions: 1 mM of PEP1, after radiation exposure (6 Gy)
Description: as §5, §6, §7, §8

NHEK cell lines = assay: In vitro radiation-induced premature senescence (RIPS) marker expression in NHEKs; type: cell-based, human; conditions: radiation 0 to 10 Gy, qRT-PCR, western blotting, immunofluorescence staining
Description: (§9) PEP1 synthesized according to Example 1 and a placebo (sham) used as a control were prepared. NHEKs were cultured in a monolayer to prepare an in vitro radiation exposure experiment. For in vitro, in situ, and in vivo radiation exposure experiments, ionized radiation was used at various intensities ranging from 0 to 10 Gy (0, 2, 4, 6, 8, and 10 Gy).
The expression level of each marker was measured using qRT-PCR, western blotting, and immunofluorescence staining. For the measurement of the levels, senescence-associated β-galactosidase (SA β-Gal), p16INK4A, p-p53Ser15, p-ATM, γ-H2AX, 53BP1,H3K9me3, HP1γ, and HMGA2 were used as markers.

oral mucositis model = assay: In vivo oral mucositis model, radiation-induced tongue ulcer; conditions: C3H mice, PEP1 1 mg/kg intraperitoneally, 6 Gy IR for five consecutive days
Description: as §9
(§10) Meanwhile, experimental animals were divided into two animal models. The first model was an oral mucositis model, which was prepared by inducing an ulcer to the tongue of each C3H mouse by exposing the head and the neck to radiation (6 Gy, IR) for 5 straight days. The second model is a dermal fibrosis model, which was prepared by inducing local scleroderma by subcutaneously injecting 0.1 cc of a dilution of bleomycin which was known as the cause of pulmonary fibrosis in a 0.9% NaCl aqueous solution at a concentration of 0.5 mg/ml once a day for 24 to 28 days.
For the in vivo experiment, first, in the first oral mucositis model, C3H mice were divided into groups, each intraperitoneally treated with a placebo or PEP1 to give a final dose of 1 mg/kg and exposed to radiation (6 Gy, IR) for five consecutive days to induce a tongue ulcer corresponding to an oral mucositis. Ten days later, the mice were sacrificed to collect tongue tissue, which was stained with toluidine blue and by H&E staining, to perform biopsy. […]

dermal fibrosis model = assay: In vivo dermal fibrosis model, bleomycin-induced scleroderma; conditions: C3H mice, PEP1 50 mg/kg intraperitoneally, bleomycin subcutaneously for 24 to 28 days
Description: as §10, with “28 days. Meanwhile, in the second dermal fibrosis model, C3H mice were divided into groups, each intraperitoneally treated with a placebo or PEP1 to give the final dose of 50 mg/kg, and subcutaneously treated with bleomycin at the concentrations mentioned in the preparation of the experimental animals for 24 to 28 days. 28 days later, the mice were sacrificed to detect scleroderma, followed by an experiment for examining fibrosis diffusion using Masson's trichrome staining.” for “28 days.”

[2] = nude mice inoculated with AsPC1 cells, gemcitabine 125 mg/kg once every third day i.p.

Molecule | fibronectin inhibition ratio (fibronectin (FN)) | weight of a mouse (AsPC1 cells; day 20 after the administration, compared between the four experiment groups) | fibrosis (collagen parts stained in blue color in cancer tissue) (AsPC1 cells; [2]) | cancer cells (parts stained in red color) (AsPC1 cells; [2]) | Smad2 mRNA expression (Smad2) | Smad4 mRNA expression (Smad4) | cell differentiation (fibrosis development) after radiation exposure [1] | GRHL2 expression level (GRHL2) | p63 expression level (p63) | N-Cad expression level (N-Cad) | P-Akt expression level (degree of cell survival) (P-Akt) | radiation-induced premature senescence (RIPS), indicated by marker expression (NHEK cell lines) | defensive effect against exposure to radiation, indicated by biopsy (oral mucositis model) | defensive effect against induction of tissue fibrosis, indicated by biopsy (dermal fibrosis model)
NC(=O)c1ccc(-c2nc(-c3ccc4c(c3)OCO4)c(-c3ccccn3)[nH]2)cc1 [SB431542] | 60.7% |  |  |  |  |  |  |  |  |  |  |  |  | 
Nc1ccn([C@@H]2O[C@H](CO)[C@@H](O)C2(F)F)c(=O)n1 [gemcitabine] |  | the smallest | fibrosis was considerably developed | cancer cells were killed |  |  |  |  |  |  |  |  |  | 
EARPALLTSRLRFIPK (listed as Homo sapiens) [PEP1, telomerase-derived peptide, which consists of 16 amino acids; position [611-626] on telomerase] |  |  | fibrosis was considerably inhibited |  | concentration-dependently inhibited | concentration-dependently inhibited | hardly showed differentiation | increased | increased | decreased | increased | RIPS inhibitory effect | defensive effects | defensive effects
